Experimental data as given in patent US20250352500A1, “USE OF PHENOLIC ACIDS DERIVATIVES IN TREATING ISCHEMIC STROKE” (LANZHOU UNIVERSITY, priority 2022, published 2025).

Key:
Assay type in all cases: in vivo, male C57/BL mice
MCAO model mice [1] = assay: Cerebral infarction volume by TTC staining in MCAO model mice; settings: for Cerebral infarction volume reduced compared with the model group: mean±SEM
Experimental: (§1) Male C57/BL mice weighing 23±1 g were randomly divided into sham operation group (SHAM), model group (MCAO) and drug administration groups (50 mg/kg, 100 mg/kg, 200 mg/kg), with 6 mice in each group. Mice in the SHAM group underwent vascular isolation, but no […] was administered, and no treatment was given before or after surgery. The model group mice were constructed with ischemic MCAO models, and no treatment was given before and after surgery. The drug administration group was treated with compound 2 on the basis of the model group. Mice with a neurological score of 0 after reperfusion and those that died before 72 hours post-surgery were excluded. The drugs were administered through the tail vein at 0, 1, and 2 days after reperfusion. The SHAM group and MCAO group were given equal volumes of saline.
The cerebral infarction volumes of the sham-hand group (SHAM), model group (MCAO), compound 2 (50 mg/kg) group, compound 2 (100 mg/kg) group, and compound 2 (200 mg/kg) group in Example 2 were detected by TTC staining. […] The cerebral infarction volumes of mice in the different concentration groups were different.

MCAO model mice [2] = assay: Modified neurological severity score (mNSS, 14-point scale)
Experimental: (§2) Grouping and administration method: Male C57/BL mice weighing 23±1 g were randomly divided into sham operation group (SHAM), model group (MCAO), compound 2 group (100 mg/kg), and compound 1 group (50 mg/kg), with 10 mice in each group. Mice in the SHAM group underwent vascular isolation, but no […] was administered, and no treatment was given before or after surgery. The model group mice were constructed with MCAO models and were not treated before and after surgery. The treatment group was treated with compound 2 or compound 1 on the basis of the model group. Mice with a neurological score of 0 after reperfusion and those that died before 72 hours post-surgery were excluded. The administration time for animal behavior tests was seven times at 0 h, 1 day, 2 days, 3 days, 4 days, 5 days, and 6 days after reperfusion, while the administration time for other experiments was three times at 0 h, 1 day, and 2 days after reperfusion. The drug was administered through the tail vein, and the sham operation group and model group were given equal amounts of saline.
In addition, the neurological deficit score (mNSS) method shown in the table above was used to score the neurological function of each group of mice on a 14-point scale. Neurobehavioral scores were assessed in mice of the SHAM group, MCAO group, Compound 2 group, and Compound 1 group on day 1, 3, 5, and 7 post-surgery. […]

IL-6 = assay: RT-qPCR of IL-6 mRNA in brain tissue; settings: 72 h, three days of administration, compound 2 100 mg/kg, P<0.01
Experimental: as §2, with “The administration time for animal behavior tests was seven times at 0 h, 1 day, 2 days, 3 days, 4 days, 5 days, and 6 days after reperfusion, while the administration time for other experiments was three times at 0 h, 1 day, and 2 days after reperfusion. The drug was administered through the tail vein, and the sham operation group and model group were given equal amounts of saline.” left out
(§3) To investigate the effect of compounds on the expression of inflammatory factors after ischemia-reperfusion, this study used immunofluorescence experiments to observe the expression of TNF-α, IL-1β, IL-6, iNOS, and COX2 proteins in brain tissue. […] The concentrations of TNF-α, IL-1β, and IL-6 in brain homogenate were detected by enzyme-linked immunosorbent assay (ELISA), and the expression level of TNF-α protein in brain tissue was detected by Western blot.
(§4) After 72 hours of ischemia-reperfusion, the mRNA expression levels of TNF-α, IL-1β, IL-6, iNOS, and COX2 in brain tissue were detected and analyzed by RT-qPCR. […]

MCAO model mice [3] = assay: Survival curve after ischemia-reperfusion; settings: 100 mg/kg tail vein
Experimental: as §2
At the same time, the weight change and survival rate of mice after ischemia-reperfusion were analyzed.

MCAO model mice [4] = assay: Zea-Longa neurological function score in MCAO model mice
Experimental: as §1
The neurological function score reflects the neurological injury status of MCAO model mice. After 24 hours of modeling, the neurological function score was performed (refer to the Zea-Longa scoring screening method). Mice with scores of 1-3 were successfully modeled, and those with scores of 0 and 4 were excluded.
In this experiment, the Zea-Longa scoring method was used to score the sham hand group (SHAM), model group (MCAO), compound 2 (50 mg/kg) group, compound 2 (100 mg/kg) group, and compound 2 (200 mg/kg) group. The main scoring time points were before surgery, day 1, day 2, and day 3.

IL-1β = assay: RT-qPCR of IL-1β mRNA in brain tissue; settings: 72 h, three days of administration, compound 2 100 mg/kg, P<0.01
Experimental: as §2, with “The administration time for animal behavior tests was seven times at 0 h, 1 day, 2 days, 3 days, 4 days, 5 days, and 6 days after reperfusion, while the administration time for other experiments was three times at 0 h, 1 day, and 2 days after reperfusion. The drug was administered through the tail vein, and the sham operation group and model group were given equal amounts of saline.” left out
as §3, §4

SMILES: O=C(O)c1cc(OP(=O)(O)O)ccc1OP(=O)(O)O [compound 2]
- Cerebral infarction volume reduced compared with the model group (MCAO model mice [1]; 100 mg/kg via tail vein at 0, 1, 2 days after reperfusion, P<0.001): 27.17±5.18%
- Cerebral infarction volume smaller at 100 mg/kg compared with 50 mg/kg (MCAO model mice [1]; 100 mg/kg vs 50 mg/kg of compound 2, mean±SEM, P<0.05): 26.22±4.68%
- Cerebral infarction volume reduced compared with the model group (MCAO model mice [1]; 200 mg/kg via tail vein at 0, 1, 2 days after reperfusion, P<0.05): 16.19±3.56%
- Neurological function (mNSS 14-point scale) compared with the compound 1 group (MCAO model mice [2]; compound 2 100 mg/kg vs compound 1 50 mg/kg): significantly improved
- Neurological function (mNSS 14-point scale) compared with MCAO group (MCAO model mice [2]; day 1 to day 7 of reperfusion, 100 mg/kg tail vein): improved significantly
- Decrease of IL-6 mRNA expression compared with MCAO group (IL-6): 51±8%
- Mortality rate (survival curve) compared with MCAO group (MCAO model mice [3]): significantly improved the mortality rate
- Zea-Longa neurological score compared with the model group (MCAO model mice [4]; 24 hours of reperfusion, 50, 100, 200 mg/kg via tail vein): no significant difference
- Zea-Longa neurological score compared with the model group (MCAO model mice [4]; after 48 hours, 100 mg/kg via tail vein, P<0.001): most significant decrease
- Zea-Longa neurological score compared with the model group (MCAO model mice [4]; after 48 hours, three concentrations (50, 100, 200 mg/kg) via tail vein): decreased significantly
- Zea-Longa neurological score compared with the model group (MCAO model mice [4]; after 72 hours of reperfusion, 100 mg/kg via tail vein, P<0.001): significantly decreased
- IL-1β mRNA expression compared with MCAO group (IL-1β): significantly reduced
